We go through 41 molecules from patent publication US8367835B2, “Cyclic amine-1-carboxylic acid ester derivative and pharmaceutical composition containing the same” (Dainippon Sumitomo Pharma Co., Ltd., priority 2008, dated 2013).

Read-outs that look alike come from different tables or passages of the source.

The target in one assay is T1, TRPV1 (Rattus norvegicus, UniProt O35433).
T1 construct: using cultured rat dorsal root ganglion cells which express TRPV1 abundantly; endogenous in cells; host or cells: primary culture of dorsal root ganglion cells from 7 day old Wistar rat
T1 sequence (O35433 whole entry): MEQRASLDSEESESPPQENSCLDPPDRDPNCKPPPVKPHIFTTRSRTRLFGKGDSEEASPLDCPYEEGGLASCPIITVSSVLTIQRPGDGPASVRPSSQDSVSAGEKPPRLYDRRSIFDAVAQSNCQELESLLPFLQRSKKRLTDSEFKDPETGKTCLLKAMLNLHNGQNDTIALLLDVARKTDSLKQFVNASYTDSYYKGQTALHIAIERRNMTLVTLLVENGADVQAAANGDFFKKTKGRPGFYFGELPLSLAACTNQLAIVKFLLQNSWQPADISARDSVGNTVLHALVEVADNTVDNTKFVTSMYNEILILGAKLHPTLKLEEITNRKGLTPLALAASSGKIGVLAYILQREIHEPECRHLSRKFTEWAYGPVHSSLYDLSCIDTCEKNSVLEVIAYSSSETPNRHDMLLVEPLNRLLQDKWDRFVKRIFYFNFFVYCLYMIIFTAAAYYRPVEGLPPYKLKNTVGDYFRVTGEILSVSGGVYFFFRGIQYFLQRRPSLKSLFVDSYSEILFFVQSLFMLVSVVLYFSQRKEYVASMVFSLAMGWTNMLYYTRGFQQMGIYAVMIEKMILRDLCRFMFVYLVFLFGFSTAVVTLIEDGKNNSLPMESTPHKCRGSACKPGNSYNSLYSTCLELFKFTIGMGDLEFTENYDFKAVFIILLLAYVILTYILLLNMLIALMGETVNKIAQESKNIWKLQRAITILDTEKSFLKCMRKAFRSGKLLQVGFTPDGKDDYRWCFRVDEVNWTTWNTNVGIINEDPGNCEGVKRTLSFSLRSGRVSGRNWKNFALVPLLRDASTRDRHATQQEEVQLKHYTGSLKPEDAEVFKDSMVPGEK
The experiment in a line: TRPV1 agonist activity by intracellular calcium level (FLIPR method). The class given is cell-based. As to conditions: rat dorsal root ganglion primary culture cells. The source says: The test is to measure the elevation of intracellular calcium level as the indicator of TRPV1 agonist activity of a test compound using cultured rat dorsal root ganglion cells which express TRPV1 abundantly, and carried out in accordance with the method of Jerman et al. (Jerman, J. C. et al., Comparison of effects of anandamide at recombinant and endogenous rat vanilloid receptors. Br J Anaesth, 2002. 89(6): p. 882-7). More specifically, the dorsal root ganglion was removed from a 7 day old Wistar rat, and the cells were isolated by collagenase-trypsin treatment. Subsequently, the primary cells was cultured in a CO2 incubator controlled at 5% CO2 and 37° C. for 2 days. The culture medium used was Neurobasal™ medium supplemented with L-glutamine, nerve growth factor, N-2-Supplement, Penicillin-Streptomycin, 5-Fluoro-2′-deoxyuridine (culture day 1 only) were added to.
FLIPR^TETRA system (Molecular Devices Corp.) was used to measure the intracellular calcium concentration. As an indicator of TRPV1 agonistic activity, the fluorescence intensity elevation was monitored when a test compound is applied to the rat dorsal root ganglion primary culture cells loaded with a calcium-sensitive fluorescent reagent.

The test system of assay [1] is mechanical hyperalgesia in a neuropathic pain model (rat Chung model). Put plainly: Analgesic effect: von Frey filament test using rat Chung model, transdermal administration. The class given is in vivo. As to conditions: 0.1% formulation applied transdermally to plantar surface of left hindlimb once a day for 2 weeks; measured on the day after last administration; pre-administration value = 100%. As to the method:
The present test is to measure the analgesic effect based on the improvement level of the mechanical hyperalgesia in a neuropathic pain model as the indicator by transdermally administering the compound of the present invention and was carried out in accordance with the method of Kim and Chung [Pain, 50, 355-363 (1992)] or the method of Tsuda et al. [Nature, 424, 778-783, 2003].
Specifically, using Jcl: Wistar male rat (7 to 9 rats/group, 5 weeks of age at the time of surgery), spinal nerves were injured to induce hyperalgesia and the withdrawal threshold was measured using the von Frey filament. In the surgery, under Pentobarbital anesthesia, the left L5 spinal nerve was exposed, ligated near the spinal cord using a silk suture (5-0) and transected just peripheral to the ligation. After suturing the incision and keeping the rats for 2 weeks, the rats were subjected to the von Frey filament test. The measurement of the mechanical hyperalgesia was carried out by applying von Frey filaments (1.0, 2.0, 4.0, 8.0, 15.0 g) to the plantar surface of the left hindlimb, and the filament intensity at which 50% or higher withdrawal behavior was observed was defined as the withdrawal threshold.
After dissolving the test compounds in a mixture of Tween 80 and ethanol, the obtained solution was mixed with a hydrophilic ointment to prepare a formulation having a concentration of 0.1%. The withdrawal threshold before administering the test compound was measured to define the pre-administration value (100%). Thereafter, once a day, for 2 weeks, the formulation having a concentration of 0.1% was transdermally administered (applied) to the plantar surface of the left hindlimb, the von Frey filament test was carried out on the following day of the last administration to measure the post-administration value. Further, the same formulation as above but free of the test compound was prepared as a vehicle control and the same test was carried out.
The analgesic effect is a relative ratio when a test compound pre-administration value calculated using the following numerical formula is 100%. The pre-administration withdrawal threshold was 3.3±0.1 g (119 cases) (the withdrawal threshold of sham-operated rat was 10 to 15 g). %=(test compound post-administration withdrawal threshold value/pre-administration withdrawal threshold value)×100

Setting [2] is: 1 μM, read-out: Value (%) when fluorescence intensity for capsaicin (1 μM) is 100%.
[3] abbreviates: read-out: Value (%) when fluorescence intensity for capsaicin (1 μM) is 100%, 1 μM.

`COc1cc(CNC(=O)C2CCN(C(=O)O[C@@H]3CCC[C@H](C)C3)CC2)ccc1O` [Example 9]: the Emax at 1 µM at TRPV1 (setting [2]) was determined as 83%.

Take `COc1cc(CNC(=O)C2CCN(C(=O)O[C@H]3CC[C@@H](C)CC3)CC2)ccc1O` [Example 3]: the Emax at 1 µM on TRPV1 (setting [2]) was 80%.

Turning to `COc1cc(CNC(=O)C2CCN(C(=O)OC3CCCCC3)CC2)ccc1O` [Example 48, cyclohexyl 4-(4-hydroxy-3-methoxybenzylcarbamoyl)-piperidine-1-carboxylate], the Emax at 1 µM on TRPV1 (setting [2]) was determined as 77%.

For the molecule `CC[C@H]1CC[C@@H](OC(=O)N2CC(C(=O)NCc3ccc(O)c(OC)c3)C2)CC1` [Example 15], the Emax at 1 µM on TRPV1 (setting [2]) turned out to be 83%.

On to `COc1cc(CNC(=O)C2CCN(C(=O)O[C@H]3CC[C@H](C)CC3)CC2)ccc1O` [Example 4], for which the Emax at 1 µM on TRPV1 (setting [2]) was 80%.

Turning to `COc1cc(CNC(=O)C2CN(C(=O)Oc3ccccc3C3CCCC3)C2)ccc1O` [Example 46, 2-cyclopentylphenyl 3-(4-hydroxy-3-methoxybenzylcarbamoyl)-azetidine-1-carboxylate], the Emax at 1 µM on TRPV1 (setting [2]) is 68%.

Regarding `CCC1(CC)CCC(OC(=O)N2CCC(C(=O)NCc3ccc(O)c(OC)c3)CC2)CC1` [Example 7], the Emax at 1 µM at TRPV1 (setting [2]) amounted to 90%.

As for `COc1cc(CNC(=O)C2CN(C(=O)OC3CC(C)(C)CC(C)(C)C3)C2)ccc1O` [Example 19], the Emax at 1 µM at TRPV1 (setting [2]) amounted to 84%.

For `COc1cc(CNC(=O)C2CCN(C(=O)OC3CCCCCC3)CC2)ccc1O` [Example 39], the Emax at 1 µM on TRPV1 (setting [2]) was 91%.

With `COc1cc(CNC(=O)[C@@H]2CCN(C(=O)OC3CCC(C)(C)CC3)C2)ccc1O` [Example 31, 4,4-dimethylcyclohexyl (R)-3-(4-hydroxy-3-methoxybenzylcarbamoyl)-pyrrolidine-1-carboxylate], on TRPV1 (setting [2]), the Emax at 1 µM was 68%.

Turning to `COc1cc(CNC(=O)C2CCN(C(=O)O[C@@H]3C[C@H](C)C[C@H](C)C3)CC2)ccc1O` [Example 12], at TRPV1 (setting [2]), the Emax at 1 µM amounted to 92%.

`COc1cc(CNC(=O)C2CCN(C(=O)O[C@H]3CC[C@@H](C(C)(C)C)CC3)CC2)ccc1O` [Example 5]: on TRPV1 (setting [2]), the Emax at 1 µM turned out to be 84%.

As to `CCC1(CC)CCC(OC(=O)N2CC[C@@H](C(=O)NCc3ccc(O)c(OC)c3)C2)CC1` [Example 33], the Emax at 1 µM on TRPV1 (setting [2]) was 73%.

Turning to `COc1cc(CNC(=O)C2CN(C(=O)O[C@H]3CC[C@H](C(C)(C)C)CC3)C2)ccc1O` [Example 17], the Emax at 1 µM on TRPV1 (setting [3]) was 82%.

Regarding `COc1cc(CNC(=O)C2CCN(C(=O)Oc3ccc(C(C)C)cc3)CC2)ccc1O` [Example 44], the Emax at 1 µM on TRPV1 (setting [2]) turned out to be 83%.

As to `COc1cc(CNC(=O)C2CCN(C(=O)O[C@@H]3CCCC[C@@H]3C)CC2)ccc1O` [Example 11], the Emax at 1 µM on TRPV1 (setting [3]) came out at 94%.

Regarding `COc1cc(CNC(=O)C2CCN(C(=O)O[C@H]3CC[C@H](C(C)(C)C)CC3)CC2)ccc1O` [Example 6], the Emax at 1 µM on TRPV1 (setting [2]) stood at 80%.

On to `COc1cc(CNC(=O)[C@@H]2CCN(C(=O)O[C@H]3CC[C@@H](C(C)(C)C)CC3)C2)ccc1O` [Example 34], for which, at TRPV1 (setting [2]), the Emax at 1 µM worked out at 72%.

Take `COc1cc(CNC(=O)C2CCN(C(=O)Oc3cccc(C(C)C)c3)CC2)ccc1O` [Example 43]: the Emax at 1 µM at TRPV1 (setting [2]) was determined as 68%.

As for `COc1cc(CNC(=O)C2CCN(C(=O)O[C@H]3CCCC[C@@H]3C)CC2)ccc1O` (relative stereo) [Example 47, (1S*,2S*)-2-methylcyclohexyl 4-(4-hydroxy-3-methoxybenzylcarbamoyl)-piperidine-1-carboxylate], the Emax at 1 µM at TRPV1 (setting [3]) worked out at 85%.

Regarding `COc1cc(CNC(=O)C2CN(C(=O)O[C@H]3C[C@H](C)CC[C@H]3C(C)C)C2)ccc1O` [Example 21], the Emax at 1 µM at TRPV1 (setting [2]) stood at 85%.

`COc1cc(CNC(=O)C2CN(C(=O)O[C@H]3CC[C@H](C(C)C)CC3)C2)ccc1O` [Example 25]: on TRPV1 (setting [2]), the Emax at 1 µM turned out to be 71%.

`COc1cc(CNC(=O)C2CN(C(=O)O[C@H]3CCC[C@H](C)C3)C2)ccc1O` [Example 18]: at TRPV1 (setting [2]), the Emax at 1 µM stood at 86%.

In the case of `CCC1(CC)CCC(OC(=O)N2CC[C@H](C(=O)NCc3ccc(O)c(OC)c3)C2)CC1` [Example 29], the Emax at 1 µM on TRPV1 (setting [2]) is 83%.

With `CCCC[C@H]1CC[C@H](OC(=O)N2CC(C(=O)NCc3ccc(O)c(OC)c3)C2)CC1` [Example 23], at TRPV1 (setting [2]), the Emax at 1 µM amounted to 77%.

For `COc1cc(CNC(=O)C2CN(C(=O)O[C@H]3CC[C@@H](C(C)C)CC3)C2)ccc1O` [Example 24], the Emax at 1 µM on TRPV1 (setting [2]) was 84%.

In the case of `COc1cc(CNC(=O)[C@H]2CCN(C(=O)OC3CCC(C)(C)CC3)C2)ccc1O` [Example 27, 4,4-dimethylcyclohexyl (S)-3-(4-hydroxy-3-methoxybenzylcarbamoyl)-pyrrolidine-1-carboxylate], on TRPV1 (setting [2]), the Emax at 1 µM was 86%.

Consider `CC[C@H]1CC[C@@H](OC(=O)N2CCC(C(=O)NCc3ccc(O)c(OC)c3)CC2)CC1` [Example 1, cis-4-ethylcyclohexyl 4-(4-hydroxy-3-methoxybenzylcarbamoyl)-piperidine-1-carboxylate], for which the Emax at 1 µM on TRPV1 (setting [3]) was determined as 87%. Further, the “% to pre-administration value (withdrawal threshold)” value in assay [1] is on record as 220%.

Turning to `CC[C@H]1CC[C@@H](OC(=O)N2CC[C@H](C(=O)NCc3ccc(O)c(OC)c3)C2)CC1` [Example 28], the Emax at 1 µM at TRPV1 (setting [2]) was 81%.

Consider `COc1cc(CNC(=O)C2CCN(C(=O)Oc3ccccc3C(C)C)CC2)ccc1O` [Example 41, 2-isopropylphenyl 4-(4-hydroxy-3-methoxybenzylcarbamoyl)-piperidine-1-carboxylate], for which, on TRPV1 (setting [2]), the Emax at 1 µM was determined as 83%.

On to `CC[C@H]1CCCC[C@H]1OC(=O)N1CCC(C(=O)NCc2ccc(O)c(OC)c2)CC1` (relative stereo) [Example 13, cis-2-ethylcyclohexyl 4-(4-hydroxy-3-methoxybenzylcarbamoyl)-piperidine-1-carboxylate], for which the Emax at 1 µM on TRPV1 (setting [2]) stood at 81%.

Consider `COc1cc(CNC(=O)C2CCN(C(=O)O[C@@H]3CCC[C@@H](C)C3)CC2)ccc1O` [Example 35, (1R,3R)-3-methylcyclohexyl 4-(4-hydroxy-3-methoxybenzylcarbamoyl)-piperidine-1-carboxylate], for which the Emax at 1 µM at TRPV1 (setting [2]) worked out at 86%. Moreover, the “% to pre-administration value (withdrawal threshold)” value in assay [1] worked out at 183%.

Consider `COc1cc(CNC(=O)C2CN(C(=O)O[C@@H]3C[C@H](C)CC[C@H]3C(C)C)C2)ccc1O` [Example 20], for which the Emax at 1 µM on TRPV1 (setting [2]) came to 73%.

For the molecule `CC[C@H]1CC[C@@H](OC(=O)N2CC[C@@H](C(=O)NCc3ccc(O)c(OC)c3)C2)CC1` [Example 32], the Emax at 1 µM on TRPV1 (setting [2]) stood at 78%.

On to `COc1cc(CNC(=O)C2CCN(C(=O)OCC3CCCCC3)CC2)ccc1O` [Example 40], for which, at TRPV1 (setting [2]), the Emax at 1 µM was 91%.

As to `CCCC[C@H]1CC[C@@H](OC(=O)N2CC(C(=O)NCc3ccc(O)c(OC)c3)C2)CC1` [Example 22], the Emax at 1 µM on TRPV1 (setting [2]) worked out at 80%.

With `COc1cc(CNC(=O)C2CCN(C(=O)O[C@H]3CCC[C@H](C)C3)CC2)ccc1O` [Example 10], the Emax at 1 µM on TRPV1 (setting [2]) worked out at 92%.

For `COc1cc(CNC(=O)C2CCN(C(=O)Oc3ccccc3C3CCCC3)CC2)ccc1O` [Example 42], on TRPV1 (setting [2]), the Emax at 1 µM worked out at 72%.

In the case of `COc1cc(CNC(=O)[C@H]2CCN(C(=O)O[C@H]3CC[C@@H](C(C)(C)C)CC3)C2)ccc1O` [Example 30], the Emax at 1 µM on TRPV1 (setting [2]) amounted to 78%.

Turning to `C=C(C)[C@@H]1CC[C@@H](C)C[C@H]1OC(=O)N1CC(C(=O)NCc2ccc(O)c(OC)c2)C1` [Example 26, (1R,2S,5R)-2-isopropenyl-5-methylcyclohexyl 3-(4-hydroxy-3-methoxybenzylcarbamoyl)-azetidine-1-carboxylate], the Emax at 1 µM at TRPV1 (setting [2]) is 82%.

As for `COc1cc(CNC(=O)C2CN(C(=O)Oc3ccccc3C(C)C)C2)ccc1O` [Example 45, 2-isopropylphenyl 3-(4-hydroxy-3-methoxybenzylcarbamoyl)-azetidine-1-carboxylate], on TRPV1 (setting [2]), the Emax at 1 µM was found to be 72%.
